Results published in patent US6500853B1, “Inhibitors of phospholipase enzymes” (Genetics Institute, LLC, priority 1998, dated 2002).
Values belong to the compound of their own block, whether it stands above or below them.

Target: T1, cPLA2 (Homo sapiens, UniProt P47712)
T1 sequence (P47712 1-749): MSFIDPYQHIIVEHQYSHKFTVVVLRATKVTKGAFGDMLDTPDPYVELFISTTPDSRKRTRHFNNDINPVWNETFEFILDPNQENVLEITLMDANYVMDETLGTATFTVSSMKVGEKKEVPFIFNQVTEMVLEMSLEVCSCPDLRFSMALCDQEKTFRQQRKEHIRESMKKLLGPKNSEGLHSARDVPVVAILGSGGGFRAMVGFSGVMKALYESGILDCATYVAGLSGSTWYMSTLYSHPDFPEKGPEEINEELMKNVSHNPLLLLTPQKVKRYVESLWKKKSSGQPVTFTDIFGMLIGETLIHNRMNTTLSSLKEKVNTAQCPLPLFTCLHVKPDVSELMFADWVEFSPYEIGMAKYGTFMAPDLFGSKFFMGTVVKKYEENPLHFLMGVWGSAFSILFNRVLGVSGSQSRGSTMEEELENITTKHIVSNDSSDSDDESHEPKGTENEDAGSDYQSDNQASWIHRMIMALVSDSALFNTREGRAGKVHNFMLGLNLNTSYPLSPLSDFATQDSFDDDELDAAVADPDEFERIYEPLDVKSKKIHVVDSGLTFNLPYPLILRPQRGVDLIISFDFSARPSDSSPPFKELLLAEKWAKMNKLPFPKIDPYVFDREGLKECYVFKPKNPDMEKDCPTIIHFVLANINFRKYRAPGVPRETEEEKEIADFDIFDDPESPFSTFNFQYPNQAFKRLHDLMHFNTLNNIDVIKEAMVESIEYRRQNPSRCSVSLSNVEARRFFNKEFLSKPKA
Assay: Coumarin Assay (cPLA2 inhibition)
Type: biochemical
Conditions: for inhibition at 11 µM: CONCENTRATION 11 micromolar; for inhibition at 20 µM: CONCENTRATION 20 micromolar; for inhibition at 4.4 µM: CONCENTRATION 4.4 micromolar
Method: Table I reports data for the compounds described in the examples above in cPLA2 inhibition assays (described below). In the data columns of Tables I and II, assay results are reported as a percent inhibition at the concentration specified.
7-hydroxycoumarinyl 6-heptenoate was used as a monomeric substrate for cPLA2 as reported previously (Huang, Z. et al., 1994, Nalytical Biochemistry 222, 110-115). Inhibitors were mixed with 200 μL assay buffer (80 mM Heped, pH 7.5, 1 mM EDTA) containing 60 μM 7-hydroxycoumarinyl 6-heptenoate. The reaction was initiated by adding 4 μg cPLA2 in 50 μL assay buffer. Hydrolysis of the 7-hydroxycounarimyl 6-heptenoate ester was monitored in a fluorometer by exciting at 360 nm and monitoring emission at 460 nm. Enzyme activity is proportional to the increase in emission at 460 nm per minute. In the presence of a cPLA2 inhibitor, the rate of increase is less. The percent inhibition for corresponding concentrations of compounds herein in this Coumarin assay are provided below in Table I.

[1] = CONCENTRATION 100 micromolar, read-out: PERCENT INHIBITION @

% Inhibition (Conc 0.31 uM): 58%
Compound: 3-{4-[2-(1-benzhydryl-5-chloro-2-{[(2,6-difluorobenzyl)oxy]methyl}-1H-indol-3-yl)ethoxy]phenyl}propanoic acid [Example 166]

inhibition at 50 µM (CONCENTRATION 50 micromolar, read-out: PERCENT INHIBITION @): 7%
inhibition at 100 µM [1]: 18%
inhibition at 170 µM (CONCENTRATION 170 micromolar, read-out: PERCENT INHIBITION @): 50%
Compound: CCCn1cc(Cc2ccc(C(=O)O)cc2OC)c2cc(NC(=O)OC3CCCC3)ccc21 [Example 1, 4-[(5-{[(cyclopentyloxy)carbonyl]amino}-1-propyl-1H-indol-3-yl)methyl]-3-methoxybenzoic acid]

inhibition at 5 µM (CONCENTRATION 5 micromolar, read-out: PERCENT INHIBITION @): 50%
inhibition at 11 µM (read-out: PERCENT INHIBITION @): 50%
Compound: COc1cc(C(=O)O)ccc1Cc1cn(Cc2ccc3ccccc3c2)c2ccc(NC(=O)OC3CCCC3)cc12 [Example 4, 4-{[5-{[(cyclopentyloxy)carbonyl]amino}-1-(2-naphthylmethyl)-1H-indol-3-yl]methyl}3-methoxybenzoic acid]

PERCENT INHIBITION @ (CONCENTRATION 100 micromolar): 41%
PERCENT INHIBITION @ (CONCENTRATION 120 micromolar): 50%
Compound: COc1cc(C(=O)O)ccc1Cc1cn(CC2CC2)c2ccc(NC(=O)OC3CCCC3)cc12 [Example 5, 4-{[5-{[(cyclopentyloxy)carbonyl]aminol}-1-(cyclopropylmethyl)-1H-indol-3-yl]methyl}-3-methoxybenzoic acid]

inhibition at 100 µM [1]: 11%
inhibition at 200 µM (CONCENTRATION 200 micromolar, read-out: PERCENT INHIBITION @): 50%
Compound: COc1cc(C(=O)O)ccc1Cc1cn(Cc2ccncc2)c2ccc(NC(=O)OC3CCCC3)cc12 [Example 6, 4-{[5-{[(cyclopentyloxy)carbonyl]amino}-1-(4-pyridinylmethyl)-1H-indol-3-yl]methyl}-3-methoxybenzoic acid]

PERCENT INHIBITION @ (CONCENTRATION 1.2 micromolar): 50%
PERCENT INHIBITION @ (CONCENTRATION 1.3 micromolar): 50%
PERCENT INHIBITION @ (CONCENTRATION 1.9 micromolar): 50%
PERCENT INHIBITION @ (CONCENTRATION 2 micromolar): 50%
Compound: COc1cc(C(=O)O)ccc1Cc1cn(C(c2ccccc2)c2ccccc2)c2ccc(S(C)(=O)=O)cc12 [Example 18, 4-{[l-benzhydryl-5-(methylsulfonyl)-1H-indol-3-yl]methyl}-3-methoxybenzoic acid]

inhibition at 2.2 µM (CONCENTRATION 2.2 micromolar, read-out: PERCENT INHIBITION @): 50%
inhibition at 4.2 µM (CONCENTRATION 4.2 micromolar, read-out: PERCENT INHIBITION @): 50%
inhibition at 5.8 µM (CONCENTRATION 5.8 micromolar, read-out: PERCENT INHIBITION @): 50%
inhibition at 6.25 µM (CONCENTRATION 6.25 micromolar, read-out: PERCENT INHIBITION @): 52%
inhibition at 7.8 µM (CONCENTRATION 7.8 micromolar, read-out: PERCENT INHIBITION @): 50%
inhibition at 9 µM (CONCENTRATION 9 micromolar, read-out: PERCENT INHIBITION @): 50%
inhibition at 11 µM (read-out: PERCENT INHIBITION @): 50%
inhibition at 12 µM (CONCENTRATION 12 micromolar, read-out: PERCENT INHIBITION @): 50%
Compound: COc1cc(C(=O)NS(=O)(=O)c2ccccc2C)ccc1Cc1cn(C(c2ccccc2)c2ccccc2)c2ccc(NC(=O)OC3CCCC3)cc12 [Example 19, Cyclopentyl N-{1-benzhydryl-3-[2-methoxy-4-({[(2-methylphenyl)sulfonyl]amino}carbonyl)benzyl]-1H-indol-5-yl}carbamate]

inhibition at 25 µM (CONCENTRATION 25 micromolar, read-out: PERCENT INHIBITION @): 50%
inhibition at 32 µM (CONCENTRATION 32 micromolar, read-out: PERCENT INHIBITION @): 50%
Compound: CCCn1cc(Cc2ccc(C(=O)NS(=O)(=O)c3ccccc3C)cc2OC)c2cc(NC(=O)OC3CCCC3)ccc21 [Example 20, Cyclopentyl N-{3-[2-methoxy-4-({[(2-methylphenyl)sulfonyl]amino}carbonyl)benzyl]-1-propyl-1H-indol-5-yl}carbamate]

inhibition at 20 µM (read-out: PERCENT INHIBITION @): 50%
Compound: COc1cc(C(=O)NS(=O)(=O)c2ccccc2C)ccc1Cc1cn(CC2CC2)c2ccc(NC(=O)OC3CCCC3)cc12 [Example 21, Cyclopentyl N-{1-(cyclopropylmethyl)-3-[2-methoxy-4-({[(2-methylphenyl)sulfonyl]amino}carbonyl)benzyl]-1H-indol-5-yl}carbamate]

inhibition at 38 µM (CONCENTRATION 38 micromolar, read-out: PERCENT INHIBITION @): 50%
inhibition at 40 µM (CONCENTRATION 40 micromolar, read-out: PERCENT INHIBITION @): 50%
Compound: COc1cc(C(=O)NS(=O)(=O)c2ccccc2C)ccc1Cc1cn(Cc2ccncc2)c2ccc(NC(=O)OC3CCCC3)cc12 [Example 22, Cyclopentyl N-[3-[2-methoxy-4-({[(2-methylphenyl)sulfonyl]amino}carbonyl)benzyl]-1-(4-pyridinylmethyl)-1H-indol-5-yl]carbamate]

inhibition at 10 µM (CONCENTRATION 10 micromolar, read-out: PERCENT INHIBITION @): 50%
inhibition at 20 µM (read-out: PERCENT INHIBITION @): 58%
Compound: COc1cc(C(=O)NS(=O)(=O)c2ccccc2C)ccc1Cc1cn(Cc2ccc3ccccc3c2)c2ccc(NC(=O)OC3CCCC3)cc12 [Example 23, Cyclopentyl N-[3-[2-methoxy-4-({[(2-methylphenyl)sulfonyl]amino}carbonyl)benzyl]-1-(2-naphthylmethyl)-1H-indol-5-yl]carbamate]

inhibition at 13 µM (CONCENTRATION 13 micromolar, read-out: PERCENT INHIBITION @): 50%
inhibition at 17 µM (CONCENTRATION 17 micromolar, read-out: PERCENT INHIBITION @): 50%
Compound: COc1cc(C(=O)NS(=O)(=O)c2ccccc2C)ccc1Cc1cn(C2CCCC2)c2ccc(NC(=O)OC3CCCC3)cc12 [Example 25, Cyclopentyl N-{1-cyclopentyl-3-[2-methoxy-4-({[(2-methylphenyl)sulfonyl]amino}carbonyl)benzyl]-1H-indol-5-yl}carbamate]

inhibition at 2.5 µM (CONCENTRATION 2.5 micromolar, read-out: PERCENT INHIBITION @): 50%
inhibition at 3.4 µM (CONCENTRATION 3.4 micromolar, read-out: PERCENT INHIBITION @): 50%
inhibition at 6 µM (CONCENTRATION 6 micromolar, read-out: PERCENT INHIBITION @): 87%
Compound: COc1cc(C(=O)NS(=O)(=O)c2nn(C)c(=NC(C)=O)s2)ccc1Cc1cn(C(c2ccccc2)c2ccccc2)c2ccc(NC(=O)OC3CCCC3)cc12 [Example 29, cyclopentyl N-(3-{4-[({[5-(acetylimino)-4-methyl-4,5-dihydro1,3,4-thiadiazol-2-yl]sulfonyl}amino)carbonyl]-2-methoxybenzyl}-1-benzhydryl-1H-indol-5-yl)carbamate]

inhibition at 11 µM (read-out: PERCENT INHIBITION @): 50%
inhibition at 18 µM (CONCENTRATION 18 micromolar, read-out: PERCENT INHIBITION @): 50%
Compound: COc1cc(C(=O)NS(=O)(=O)Cc2ccccc2)ccc1Cc1cn(C(c2ccccc2)c2ccccc2)c2ccc(NC(=O)OC3CCCC3)cc12 [Example 31, cyclopentyl N-[1-benzhydryl-3-(4-{[(benzylsulfonyl)amino]carbonyl}-2-methoxybenzyl)-1H-indol-5-yl]carbamate]

inhibition at 4 µM (CONCENTRATION 4 micromolar, read-out: PERCENT INHIBITION @): 50%
inhibition at 4.4 µM (read-out: PERCENT INHIBITION @): 50%
Compound: COc1cc(C(=O)NS(=O)(=O)c2sc(C)nc2C)ccc1Cc1cn(C(c2ccccc2)c2ccccc2)c2ccc(NC(=O)OC3CCCC3)cc12 [Example 32, cyclopentyl N-{1-benzhydryl-3-[4-({[(2,4-dimethyl-1,3-thiazol-5-yl)sulfonyl]amino}carbonyl)-2-methoxybenzyl]-1H-indol-5-yl}carbamate]

inhibition at 4.4 µM (read-out: PERCENT INHIBITION @): 50%
inhibition at 4.9 µM (CONCENTRATION 4.9 micromolar, read-out: PERCENT INHIBITION @): 50%
Compound: COc1cc(C(=O)NS(=O)(=O)c2c(C)noc2C)ccc1Cc1cn(C(c2ccccc2)c2ccccc2)c2ccc(NC(=O)OC3CCCC3)cc12 [Example 33, cyclopentyl N-{1-benzhydryl-3-[4-({[(3,5-dimethyl-4-isoxazolyl)sulfonyl]amino}carbonyl)-2-methoxybenzyl]-1H-indol-5-yl}carbamate]
